Reference: ChEMBL document CHEMBL1201862, “PubChem BioAssay data set” (2004)
Calls of active or inactive are those of the source.

Key:
[1] = viability of PTEN-deleted HCT116 cells – cell-based, HCT116 PTEN knockout, dose response (AID 1047); format: functional;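 also: HCT116 colon tumor cells with PTEN knocked out; cells exposed to compound for 60 hours before readout; potency for loss of cell viability measured by luminescence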
[2] = viability of HCT116 lacking mutant beta-catenin – cell-based, human colon tumor, dose response (AID 1045); format: functional;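 also: HCT116 colon tumor cells with beta catenin knocked out; cells exposed to compound for 60 hours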
[3] = biological target: Heat shock protein HSP 90-alpha (Homo sapiens, UniProt P07900); format: functional, organism-based
INS1 = test: INS-1E survival protection against cytokine death – cell-based, luminescence, retest, dose response (AID 449756); format: functional; details: Rattus norvegicus;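 also: cell death triggered by IL-1 beta plus TNF-alpha plus IFN-gamma mixture; protective hits raise ATP signal compared with cytokine alone wells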
[4] = microbe, parasite or virus in culture; format: functional; details: Mycobacterium tuberculosis
Cytochrome P450 1A2 = biological target: T1, Cytochrome P450 1A2 (Homo sapiens, UniProt P05177);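 also: PubChem cytochrome P450 panel assay, CYP1A2 panel member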
T1 sequence (P05177 whole entry): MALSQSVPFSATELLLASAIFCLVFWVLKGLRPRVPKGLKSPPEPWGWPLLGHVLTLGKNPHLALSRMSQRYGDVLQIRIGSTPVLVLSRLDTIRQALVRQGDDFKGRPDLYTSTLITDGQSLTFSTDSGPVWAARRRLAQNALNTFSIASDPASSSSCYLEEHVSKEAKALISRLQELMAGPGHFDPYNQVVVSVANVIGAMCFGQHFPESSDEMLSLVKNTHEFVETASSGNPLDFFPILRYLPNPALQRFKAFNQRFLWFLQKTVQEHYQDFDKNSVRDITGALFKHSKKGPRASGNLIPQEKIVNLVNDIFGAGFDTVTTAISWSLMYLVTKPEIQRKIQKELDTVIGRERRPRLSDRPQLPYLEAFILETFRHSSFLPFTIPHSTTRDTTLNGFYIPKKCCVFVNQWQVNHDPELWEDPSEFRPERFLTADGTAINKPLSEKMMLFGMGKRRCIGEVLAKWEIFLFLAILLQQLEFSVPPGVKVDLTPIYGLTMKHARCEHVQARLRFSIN

[5] = biological target: T2, Carboxy-terminal domain RNA polymerase II polypeptide A small phosphatase 1 (Homo sapiens, UniProt Q9GZU7); test: CTDSP1 inhibitors, concentration-response, biochemical, absorbance readout, ultra-high-throughput screen actives (AID 540297); format: functional
T2 sequence (Q9GZU7 whole entry): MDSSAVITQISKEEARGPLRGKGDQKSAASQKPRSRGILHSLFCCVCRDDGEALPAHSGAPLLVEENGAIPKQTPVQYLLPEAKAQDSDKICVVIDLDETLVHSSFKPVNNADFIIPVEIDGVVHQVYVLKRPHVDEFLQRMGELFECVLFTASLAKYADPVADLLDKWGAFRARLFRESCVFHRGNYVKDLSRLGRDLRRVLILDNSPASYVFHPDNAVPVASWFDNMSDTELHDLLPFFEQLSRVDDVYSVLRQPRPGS

[6] = Luminescence Cell-Based Dose Confirmation HTS to Identify Activators of 5'UTR Stem-Loop Driven Alpha-Synuclein mRNA Translation in H4 Neuroglioblastoma Cells. [Related pubchem assays: 1829 (Project Summary), 1814 (Primary HTS)]; format: functional
[7] = Luminescence Cell-Based Dose Response HTS to Identify Activators of Luciferase Translation or Activity in H4 […] Cells. [Related pubchem assays: 1829 (Project Summary), 1814 (Primary HTS)]; format: functional
H4 = test: Luminescence Cell-Based Dose Response HTS to Identify Activators of 5'UTR Stem-Loop Driven Prion Protein mRNA Translation in H4 Neuroglioblastoma Cells. [Related pubchem assays: 1829 (Project Summary), 1814 (Primary HTS)]; format: functional; details: Homo sapiens
[8] = biological target: Glucose-6-phosphate 1-dehydrogenase (Homo sapiens, UniProt P11413); test: inhibition of Homo sapiens G6PD, dose series – biochemical, fluorescence, selectivity assay for P. falciparum G6PD inhibitor project, dose response (AID 504792); format: functional
Glucose-6-phosphate 1-dehydrogenase, sequence (P11413 whole entry): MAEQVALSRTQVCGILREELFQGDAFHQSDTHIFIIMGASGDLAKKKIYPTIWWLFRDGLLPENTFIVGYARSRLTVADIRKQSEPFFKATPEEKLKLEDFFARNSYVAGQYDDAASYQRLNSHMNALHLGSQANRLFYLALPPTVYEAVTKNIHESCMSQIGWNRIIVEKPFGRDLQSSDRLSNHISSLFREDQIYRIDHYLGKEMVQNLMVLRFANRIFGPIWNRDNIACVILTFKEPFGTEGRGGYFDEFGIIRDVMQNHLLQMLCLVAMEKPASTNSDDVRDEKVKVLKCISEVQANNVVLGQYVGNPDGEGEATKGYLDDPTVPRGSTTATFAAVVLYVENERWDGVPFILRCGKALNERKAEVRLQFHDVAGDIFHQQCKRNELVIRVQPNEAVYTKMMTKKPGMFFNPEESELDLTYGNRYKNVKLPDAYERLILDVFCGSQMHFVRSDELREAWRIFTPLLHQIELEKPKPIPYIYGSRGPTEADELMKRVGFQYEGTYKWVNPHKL

[9] = P. falciparum Dd2 growth inhibitors, dose response, SYBR Green, cherry-picked samples (AID 1159567); format: functional, cell-based
[10] = biological target: T3, Polyadenylate-binding protein 1 (Homo sapiens, UniProt P11940); test: MLLE binding blockers, Cy5 peptide tracer – biochemical, fluorescence polarization, Cy5-PAM2 peptide, secondary, miRNA deadenylation inhibitor project, dose response (AID 602260); format: functional; details: read-out: IC50_Mean
T3 sequence (P11940 whole entry, the tested form may be a part): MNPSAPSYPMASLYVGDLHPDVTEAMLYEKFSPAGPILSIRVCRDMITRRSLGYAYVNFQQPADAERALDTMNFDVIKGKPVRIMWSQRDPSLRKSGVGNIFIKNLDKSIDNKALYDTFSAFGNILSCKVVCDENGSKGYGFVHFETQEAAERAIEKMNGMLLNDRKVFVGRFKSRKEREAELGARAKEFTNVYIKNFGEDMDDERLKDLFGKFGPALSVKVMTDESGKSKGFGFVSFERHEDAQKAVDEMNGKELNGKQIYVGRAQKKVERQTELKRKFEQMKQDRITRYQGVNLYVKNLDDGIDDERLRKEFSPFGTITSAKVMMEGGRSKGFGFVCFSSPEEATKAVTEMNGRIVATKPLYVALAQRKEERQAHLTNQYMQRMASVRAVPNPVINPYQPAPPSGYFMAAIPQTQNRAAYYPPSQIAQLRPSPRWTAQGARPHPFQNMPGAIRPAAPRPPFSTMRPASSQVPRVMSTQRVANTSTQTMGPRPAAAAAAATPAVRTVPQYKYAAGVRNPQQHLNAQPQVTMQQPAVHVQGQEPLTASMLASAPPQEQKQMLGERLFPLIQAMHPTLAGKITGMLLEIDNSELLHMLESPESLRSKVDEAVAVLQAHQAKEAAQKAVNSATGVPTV

[11] = biological target: T3, Polyadenylate-binding protein 1; test: MLLE domain peptide-binding blockers, IC50 – biochemical, fluorescence polarization, FITC-PAM2 peptide, dose response (AID 602259); format: functional; details: read-out: IC50_Mean
[12] = biological target: T4, RNA-binding protein pos-1 (Caenorhabditis elegans, UniProt G5EF15); test: disruptors of C. elegans POS-1 RNA interaction – biochemical, fluorescence polarization, dose response (AID 1964);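 also: purified POS-1 fused to maltose binding protein made in E. coli; potency of compounds blocking POS-1 binding to fluorescent RNA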
T4 sequence (G5EF15 whole entry): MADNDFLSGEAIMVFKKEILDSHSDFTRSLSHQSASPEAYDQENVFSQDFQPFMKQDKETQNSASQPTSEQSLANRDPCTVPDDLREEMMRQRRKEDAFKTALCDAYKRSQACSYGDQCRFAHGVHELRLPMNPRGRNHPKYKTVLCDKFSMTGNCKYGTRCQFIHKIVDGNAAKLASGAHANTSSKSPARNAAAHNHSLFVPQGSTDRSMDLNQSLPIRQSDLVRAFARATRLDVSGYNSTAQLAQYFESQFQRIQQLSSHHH

[13] = biological target: T5, Zinc finger protein mex-5 (Caenorhabditis elegans, UniProt Q9XUB2); test: potency of MEX-5 RNA-binding blockers – biochemical, C. elegans, fluorescence polarization, dose response (AID 1960)
T5 sequence (Q9XUB2 whole entry): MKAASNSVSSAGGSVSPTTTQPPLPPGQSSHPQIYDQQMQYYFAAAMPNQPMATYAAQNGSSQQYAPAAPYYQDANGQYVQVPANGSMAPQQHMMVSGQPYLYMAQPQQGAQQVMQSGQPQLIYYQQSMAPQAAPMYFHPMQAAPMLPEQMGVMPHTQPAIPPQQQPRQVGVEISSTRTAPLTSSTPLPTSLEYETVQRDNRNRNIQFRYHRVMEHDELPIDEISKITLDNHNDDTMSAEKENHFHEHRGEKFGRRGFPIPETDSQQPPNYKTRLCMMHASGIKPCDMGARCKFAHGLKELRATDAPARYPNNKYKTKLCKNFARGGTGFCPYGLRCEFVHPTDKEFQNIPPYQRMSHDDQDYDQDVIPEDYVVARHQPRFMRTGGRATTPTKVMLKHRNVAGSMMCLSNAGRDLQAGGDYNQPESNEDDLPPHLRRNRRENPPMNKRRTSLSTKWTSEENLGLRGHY

[14] = Luminescence Cell-Based Dose Retest to Confirm Inhibitors of Cancer Stem Cells. [Related pubchem assays (depositor defined):AID2717, AID2721]; format: functional; details: Homo sapiens
[15] = biological target: T6, Ubiquitin-conjugating enzyme E2 N (Homo sapiens, UniProt P61088); format: functional;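 also: Dose-response confirmation in a TR-FRET assay detecting UBC13-driven polyubiquitin chain formation, inhibition measured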
T6 sequence (P61088 whole entry): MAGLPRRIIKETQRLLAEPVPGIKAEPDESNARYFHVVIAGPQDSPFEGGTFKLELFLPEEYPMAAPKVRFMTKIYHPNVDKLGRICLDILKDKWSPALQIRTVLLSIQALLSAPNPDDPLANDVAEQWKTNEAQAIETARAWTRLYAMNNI

[16] = tested on: Streptococcus sp. 'group A'; test: Streptococcus pyogenes SK(-)GAS viability under kanamycin – luminescence, BacTiterGlo, confirmation, counter-screen for streptokinase expression inhibitor project, dose response (AID 1900); format: functional, organism-based
[17] = Trypanosoma cruzi growth suppression in host cells – NIH3T3 host cells, beta-gal luminescence, confirmation (AID 2044); format: functional, cell-based;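 also: intracellular parasites grown in NIH/3T3 mouse fibroblasts as host cells; luminescent beta-galactosidase reporter signal from transgenic T. cruzi replicating inside host cells; inhibitors lower the luminescence signal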
[18] = NIH3T3 cell viability loss – ATP luminescence, mouse fibroblasts, counter-screen, dose response (AID 2010); format: functional, cell-based;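 also: cells exposed to compound for about 90 hours before reading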
Streptococcus = test: GAS UMAA2166 growth inhibition – luminescence, BacTiterGlo, counter-screen for streptokinase expression inhibitor project, dose response (AID 1915); format: functional, organism-based;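 also: potency for reduction of bacterial viability or growth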

CCN1C/C(=C/c2cccc([N+](=O)[O-])c2)C(=O)/C(=C/c2cccc([N+](=O)[O-])c2)C1
EC50 [1]: 0.085 µM (active)
EC50 [2]: 0.062 µM (active)
AC50 [3]: 4.21 µM (active)
AC50 (INS1): 2.24 µM (active)

O=C1C(O)=C(C2CCC(c3ccc(Cl)cc3)CC2)C(=O)c2ccccc21 (centres undefined)
CC50 [4]: 12.8 µM (active)
AC50 (Cytochrome P450 1A2): 10 µM (inconclusive)

O=C(O)c1cccc(-n2cccc2/C=C2/NC(=O)N(c3cccc(Cl)c3)C2=O)c1
IC50 [5]: 9.53 µM (active)

Cc1ccc(C(=O)Cn2nnc3ccccc32)cc1
EC50 [6]: 0.276 µM (active)
EC50 [7]: 0.325 µM (active)
EC50 (H4): 77.2 µM (active)

O=[N+]([O-])c1ccc2c(c1)-c1ccccc1C2O (centres undefined)
IC50 [8]: > 80 µM (inactive)

CN1C(=O)c2cc(NC(=O)c3cnccn3)ccc2OC[C@H]2O[C@@H](CC(=O)N[C@H]3CCN(Cc4ccccc4)C3)CC[C@H]21
AC50 [9]: 6.41 µM (active)

CC1CC(C)CN(C(=O)COC(=O)/C=C/c2ccco2)C1 (centres undefined)
IC50 [5]: 19.9 µM (active)

O=C(OCc1cc(=O)n2c(n1)sc1ccccc12)c1ccc2c(=O)n3c(nc2c1)CCC3
IC50 [5]: 5.85 µM (active)

CON=C(C(=O)NC1C(=O)N2C(C(=O)O)=C(CSc3nc(=O)c(=O)[nH]n3C)CSC12)c1csc(N)n1 (centres undefined)
IC50 [5]: 2.89 µM (active)

c1ccc(-c2ccc3c(n2)CCCO3)cc1
EC50 [6]: 47.7 µM (active)
EC50 [7]: 55.5 µM (active)
EC50 (H4): 7.05 µM (active)

Cc1ccc(Nc2nc(N)c([N+](=O)[O-])c(N3CCCC(C)C3)n2)cc1C (centres undefined)
CC50 [4]: 40 µM (active)
AC50 [3]: 8.91 µM (active)

Cn1c(N=C(S)Nc2ccccc2)nc2ccccc21
CC50 [4]: > 40 µM (active)

CCOc1ccc2c(c1)-c1c(ssc1=S)C(C)(C)N2C(=O)CSC1=NCCS1
IC50 [10]: > 66 µM (inactive)
IC50 [11]: > 66 µM (inactive)

COc1ccc(Cl)cc1Nc1nc(-c2sc(NC(=O)c3ccccc3)nc2C)cs1
EC50 [1]: 7.12 µM (active)
EC50 [2]: 10.3 µM (active)

Cc1ccc(F)cc1NC(=O)c1sc2ncn(CC(=O)N3CCN(c4ccccn4)CC3)c(=O)c2c1C
EC50 [6]: > 120 µM (not active)
EC50 [7]: > 120 µM (not active)
EC50 (H4): > 120 µM (not active)

CCN(CC)c1nc(N)nc(NS(=O)(=O)c2ccc(Cl)cc2)n1
IC50 [8]: > 80 µM (inactive)

N#C[C@@H]1[C@H](c2ccccc2-c2ccc(F)cc2)[C@H](CO)N1C(=O)NC1CCCC1
AC50 [9]: 5.12 µM (active)

CCCCc1cn([C@@H](CCCCN)C(=O)N2CCNCC2)nn1
EC50 [12]: 31.9 µM (active)
EC50 [13]: 26.1 µM (active)
IC50 [10]: > 66 µM (inactive)
IC50 [11]: 21 µM (inactive)

Cc1ccc(OC/C(O)=C(\C#N)c2nc3ccccc3s2)cc1
CC50 [4]: > 40 µM (active)
AC50 [14]: 6.14 µM (active)

COCC(=O)N1[C@H](CO)[C@@H](c2ccccc2)C12CN(Cc1cc(F)ccc1F)C2
AC50 [9]: 18.1 µM (active)

O=C(CCc1ccccc1)NC(=S)Nc1ccc(S(=O)(=O)N2CCOCC2)cc1
IC50 [10]: > 66 µM (inactive)
IC50 [11]: > 66 µM (inactive)

CCOc1ccc(Cl)cc1/C=N/NC(N)=O
IC50 [8]: > 80 µM (inactive)
IC50 [15]: > 20 µM (inactive)

CC(SCC(=O)Nc1ccccc1)c1nc(O)c2ccccc2n1 (centres undefined)
IC50 [8]: 22.3 µM (inactive)

COCCNC(=O)C(c1ccncc1)N(Cc1ccccc1)C(=O)Cn1nnc2ccccc21 (centres undefined)
EC50 [6]: 4.27 µM (active)
EC50 [7]: 15.7 µM (active)
EC50 (H4): 1.08 µM (active)

CC(=O)c1ccc(N2CCC(c3cc(-c4ccc(Cl)cc4Cl)[nH]n3)CC2)c([N+](=O)[O-])c1
EC50 [16]: 4.36 µM (active)
EC50 [17]: 1.24 µM (active)
CC50 [4]: 29.2 µM (active)
EC50 [18]: > 60 µM (inconclusive)
EC50 (Streptococcus): 8.12 µM (active)
AC50 [14]: 2.19 µM (active)

O=c1c2ccccc2nnn1COc1ccc(Cl)cc1Br
EC50 [6]: 0.383 µM (active)
EC50 [7]: 29.7 µM (active)
EC50 (H4): 15.6 µM (active)

Cc1cc(Nc2cc(Cl)nc(Sc3ccc(NC(=O)C4CC4)cc3)n2)[nH]n1
CC50 [4]: 35.8 µM (active)

O=[N+]([O-])c1cccc(C(=S)N2CCN(c3ccccc3)CC2)c1
IC50 [10]: > 66 µM (inactive)
IC50 [11]: > 66 µM (inactive)

NC(=S)N=Nc1c(O)[nH]c2ccc(F)cc12
IC50 [10]: > 66 µM (inactive)
IC50 [11]: > 66 µM (inactive)

COc1ccc(C(=S)Nc2ccc(C)cc2)cc1
IC50 [10]: > 66 µM (inactive)
IC50 [11]: > 66 µM (inactive)

CCCS(=O)(=O)N1CCN=C1SCc1cccnc1
IC50 [10]: > 66 µM (inactive)
IC50 [11]: > 66 µM (inactive)

O=C1CC(=O)N2N=C(c3ccc([N+](=O)[O-])cc3)SC2=N1
IC50 [5]: 5.67 µM (active)
